System: human endometrial cancer cell strain AN3CA tumor
Assay: Anti-tumor effect assay using mouse subcutaneous transplantation model
Type: in vivo, female nude mouse
Details: AN3-CA, oral, tumor weight vs negative control, read-out: Anti-tumor effect (tumor growth inhibition rate); for inhibition in vivo at 2.5 mg/kg/day / inhibition in vivo at 10 mg/kg/day / inhibition in vivo at 5 mg/kg/day: 8 or 5 consecutive days depending on compound; for inhibition in vivo at 20 mg/kg/day: consecutive days
Description: A tumor section was prepared from a human endometrial cancer cell strain AN3CA tumor mass formed in a female nude mouse as a subcutaneously transplanted tumor and then a xenograft model was prepared by transplanting the tumor section into female nude mouse. Tumor-bearing mice having an estimated tumor volume (long diameter×short diameter×short diameter/2) of 80 to 200 mm^3 were divided, so that there should be no significant difference in the mean estimated tumor volume and body weight as compared with the negative control group to perform a test. The test compound was orally administered at a predetermined dose for 8 consecutive days. On the following day of the final administration day, tumor-bearing mice were anesthetized and exsanguinated to death and a tumor mass was isolated to measure tumor weight (the compounds of Examples 1, 3, 6, 8, 11, 12, and 14). Furthermore, as a similar test, the test compound was orally administered for 5 consecutive days, animals were sacrificed on the final administration day, and tumor weight was measured (the compounds of Examples 60, 63, 75, 77, 79, 89, 92, 107, 108, 109, 110, and 127).
In all the tests, anti-tumor effect was calculated by the following formula. {1−(tumor weight in compound treatment group/tumor weight in negative control group)}×100

Row | SMILES | inhibition in vivo at 10 mg/kg/day | inhibition in vivo at 5 mg/kg/day | other results
1 | C[C@H](O)C(=O)N1CCN(c2nc3c(N4CCOCC4)nc(-c4cnc(N)nc4)nc3n2CC(F)(F)F)C[C@@H]1C [Example 109, (2S)-1-{(2S)-4-[2-(2-Aminopyrimidin-5-yl)-6-morpholin-4-yl-9-(2,2,2-trifluoroethyl)-9H-purin-8-yl]-2-methylpiperazin-1-yl}-1-oxopropan-2-ol] | – | – | inhibition in vivo at 1.875 mg/kg/day (120 h, 5 consecutive days): 42%; inhibition in vivo at 7.5 mg/kg/day (120 h, 5 consecutive days): 80%
2 | CNc1ncc(-c2nc(N3CCOCC3)c3nc(N4CCN(C(C)=O)[C@H](C)C4)n(CC(F)(F)F)c3n2)cn1 [Example 108, 5-{8-[(3R)-4-Acetyl-3-methylpiperazin-1-yl]-6-morpholin-4-yl-9-(2,2,2-trifluoroethyl)-9H-purin-2-yl}-N-methylpyrimidin-2-amine] | 82% | – | inhibition in vivo at 2.5 mg/kg/day: 53%
3 | CS(=O)(=O)N1CCN(c2nc3c(N4CCOCC4)nc(-c4cnc(N)nc4)nc3n2CC2CC2)CC1 [Example 3, 5-{9-(Cyclopropylmethyl)-8-[4-(methylsulfonyl)piperazin-1-yl]-6-morpholin-4-yl-9H-purin-2-yl}pyrimidin-2-amine] | 86% | 75% | –
4 | CC(C)Cn1c(N2CCN(C(=O)C[C@@H](C)O)CC2)nc2c(N3CCOCC3)nc(-c3cnc(N)nc3)nc21 [Example 81, (2R)-4-{4-[2-(2-Aminopyrimidin-5-yl)-9-isobutyl-6-morpholin-4-yl-9H-purin-8-yl]piperazin-1-yl}-4-oxobutan-2-ol] | 74% | 37% | –
5 | CC(=O)N1CCN(c2nc3c(N4CCOCC4)nc(-c4cnc(N)nc4)nc3n2CC(C)C)CC1 [Example 2, 5-[8-(4-Acetylpiperazin-1-yl)-9-isobutyl-6-morpholin-4-yl-9H-purin-2-yl]pyrimidin-2-amine] | 70% | 44% | –
6 | CC(C)Cn1c(N2CCN(C(=O)CO)CC2)nc2c(N3CCOCC3)nc(-c3cnc(N)nc3)nc21 [Example 89, 2-{4-[2-(2-Aminopyrimidin-5-yl)-9-isobutyl-6-morpholin-4-yl-9H-purin-8-yl]piperazin-1-yl}-2-oxoethanol] | 69% | 56% | –
7 | CC(=O)N1CCN(c2nc3c(N4CCOCC4)nc(-c4cnc(N)nc4)nc3n2CC2CC2)CC1 [Example 10, 5-[8-(4-Acetylpiperazin-1-yl)-9-(cyclopropylmethyl)-6-morpholin-4-yl-9H-purin-2-yl]pyrimidin-2-amine] | 39% | – | inhibition in vivo at 20 mg/kg/day: 73%
8 | CC(C)Cn1c(N2CCN(C(=O)[C@@H](C)O)CC2)nc2c(N3CCOCC3)nc(-c3cnc(N)nc3)nc21 [Example 93] | – | 54% | inhibition in vivo at 2.5 mg/kg/day: 42%
9 | CC[C@H]1CN(c2nc3c(N4CCOCC4)nc(-c4cnc(N)nc4)nc3n2CC(F)(F)F)CCN1C(C)=O [Example 75, 5-{8-[(3S)-4-Acetyl-3-ethylpiperazin-1-yl]-6-morpholin-4-yl-9-(2,2,2-trifluoroethyl)-9H-purin-2-yl}pyrimidin-2-amine] | – | – | inhibition in vivo at 1.875 mg/kg/day (120 h, 5 consecutive days): 44%; inhibition in vivo at 7.5 mg/kg/day (120 h, 5 consecutive days): 77%
10 | CC(C)Cn1c(N2CCN(S(C)(=O)=O)[C@@H](C)C2)nc2c(N3CCOCC3)nc(-c3cnc(N)nc3)nc21 [Example 53, 5-{9-Isobutyl-8-[(3S)-3-methyl-4-(methylsulfonyl)piperazin-1-yl]-6-morpholin-4-yl-9H-purin-2-yl}pyrimidin-2-amine] | 68% | 45% | –
11 | CC(C)Cn1c(N2CCN(C=O)[C@@H](C)C2)nc2c(N3CCOCC3)nc(-c3cnc(N)nc3)nc21 [Example 102, (2S)-4-[2-(2-Aminopyrimidin-5-yl)-9-isobutyl-6-morpholin-4-yl-9H-purin-8-yl]-2-methylpiperazine-1-carboaldehyde] | – | 64% | inhibition in vivo at 2.5 mg/kg/day: 54%
12 | CC(=O)N1CCN(c2nc3c(N4CCOCC4)nc(-c4cnc(N)nc4)nc3n2CC(C)C)C[C@@H]1C [Example 101, 5-{8-[(3S)-4-Acetyl-3-methylpiperazin-1-yl]-9-isobutyl-6-morpholin-4-yl-9H-purin-2-yl}pyrimidin-2-amine] | – | 69% | inhibition in vivo at 2.5 mg/kg/day: 42%
13 | CC(=O)N1CCN(c2nc3c(N4CCOCC4)nc(-c4cnc(N)nc4)nc3n2CC(F)(F)F)C[C@H]1C [Example 60, 5-{8-[(3R)-4-Acetyl-3-methylpiperazin-1-yl]-6-morpholin-4-yl-9-(2,2,2-trifluoroethyl)-9H-purin-2-yl}pyrimidin-2-amine] | – | – | inhibition in vivo at 1.5 mg/kg/day (120 h, 1.5 mg/kg/day, 5 consecutive days): 64%; inhibition in vivo at 6 mg/kg/day (120 h, 6 mg/kg/day, 5 consecutive days): 89%
14 | CC[C@@H]1CN(c2nc3c(N4CCOCC4)nc(-c4cnc(N)nc4)nc3n2CC(F)(F)F)CCN1C(=O)[C@H](C)O [Example 79] | 59% | – | inhibition in vivo at 2.5 mg/kg/day: 27%
15 | CC(=O)N1CCN(c2nc3c(N4CCOCC4)nc(-c4cnc(N)nc4)nc3n2CC(F)(F)F)C[C@@H]1C [Example 63, 5-{8-[(3S)-4-Acetyl-3-methylpiperazin-1-yl]-6-morpholin-4-yl-9-(2,2,2-trifluoroethyl)-9H-purin-2-yl}pyrimidin-2-amine] | – | – | inhibition in vivo at 0.875 mg/kg/day (120 h, 0.875 mg/kg/day, 5 consecutive days): 52%; inhibition in vivo at 3.5 mg/kg/day (120 h, 3.5 mg/kg/day, 5 consecutive days): 88%
16 | C[C@@H]1CN(c2nc3c(N4CCOCC4)nc(-c4cnc(N)nc4)nc3n2CC(F)(F)F)C[C@H](C)N1 [Example 14, 5-[8-(cis-3,5-Dimethylpiperazin-1-yl)-6-morpholin-4-yl-9-(2,2,2-trifluoroethyl)-9H-purin-2-yl]pyrimidin-2-amine] | 82% | 64% | –
17 | CC(C)Cn1c(N2CCN(S(C)(=O)=O)[C@H](C)C2)nc2c(N3CCOCC3)nc(-c3cnc(N)nc3)nc21 [Example 54, 5-{9-Isobutyl-8-[(3R)-3-methyl-4-(methylsulfonyl)piperazin-1-yl]-6-morpholin-4-yl-9H-purin-2-yl}pyrimidin-2-amine] | 74% | – | inhibition in vivo at 20 mg/kg/day: 82%
18 | CC(C)Cn1c(N2CCN(C(=O)CN(C)C)CC2)nc2c(N3CCOCC3)nc(-c3cnc(N)nc3)nc21 [Example 55, 5-(8-{4-[(Dimethylamino)acetyl]piperazin-1-yl}-9-isobutyl-6-morpholin-4-yl-9H-purin-2-yl)pyrimidin-2-amine] | 32% | – | inhibition in vivo at 20 mg/kg/day: 59%
19 | CNc1ncc(-c2nc(N3CCOCC3)c3nc(N4CCN(C(C)=O)[C@@H](C)C4)n(CC(F)(F)F)c3n2)cn1 [Example 107, 5-{8-[(3S)-4-Acetyl-3-methylpiperazin-1-yl]-6-morpholin-4-yl-9-(2,2,2-trifluoroethyl)-9H-purin-2-yl}-N-methylpyrimidin-2-amine] | – | 76% | inhibition in vivo at 1.25 mg/kg/day (120 h, 1.25 mg/kg/day, 5 consecutive days): 46%
20 | CNc1ncc(-c2nc(N3CCOCC3)c3nc(N4CCN(S(C)(=O)=O)CC4)n(CC(F)(F)F)c3n2)cn1 [Example 11, N-Methyl-5-{8-[4-(methylsulfonyl)piperazin-1-yl]-6-morpholin-4-yl-9-(2,2,2-trifluoroethyl)-9H-purin-2-yl}pyrimidin-2-amine] | – | 85% | inhibition in vivo at 2.5 mg/kg/day: 68%
21 | CC(C)Cn1c(N2CCN(C=O)CC2)nc2c(N3CCOCC3)nc(-c3cnc(N)nc3)nc21 [Example 90, 4-[2-(2-Aminopyrimidin-5-yl)-9-isobutyl-6-morpholin-4-yl-9H-purin-8-yl]piperazine-1-carboaldehyde] | 80% | 40% | –
22 | C[C@H](O)C(=O)N1CCN(c2nc3c(N4CCOCC4)nc(-c4cnc(N)nc4)nc3n2CC2CC2)C[C@H]1C [Example 95, (2S)-1-{(2R)-4-[2-(2-Aminopyrimidin-5-yl)-9-(cyclopropylmethyl)-6-morpholin-4-yl-9H-purin-8-yl]-2-methylpiperazin-1-yl}-1-oxopropan-2-ol] | 62% | 44% | –
23 | C[C@H](O)C(=O)N1CCN(c2nc3c(N4CCOCC4)nc(-c4cnc(N)nc4)nc3n2CC2CC2)CC1 [Example 88, (2S)-1-{4-[2-(2-Aminopyrimidin-5-yl)-9-(cyclopropylmethyl)-6-morpholin-4-yl-9H-purin-8-yl]piperazin-1-yl}-1-oxopropan-2-ol] | 54% | 30% | –

— patent publication US8309546B2, “Morpholinopurine derivatives” (Daiichi Sankyo Company, Limited, priority 2008, dated 2012)
